Key:
Assay type in all cases: physicochemical
[1] = Bulk and tap density of the solid salt
Protocol: (§1) 27.22 g of freebase alpha-6-mPEG6-O-hydroxycodone was added to a 250 mL jacketed flask. The flask was equipped with a nitrogen inlet, mechanical stirrer and temperature probe connected to a digital read-out. 163 mL of tBME (methyl tert-butyl ether):heptane (5:1 vol:vol) was added to make a homogeneous solution at 15° C. Aqueous phosphoric acid (3103 μL of 85+%) was added over 1 hr at 10 minutes intervals. During the first addition, the initially formed solids were long strings and agitation helped to transform fine solid in matter of seconds. Exothermic temperature spikes occurred; the range of these increases was 8-10° C. observed during the initial 5 added portions. During the 6th and 7th added portion the temperature spike was reduced substantially to increments of a Celsius degree. After 2 hours the slurry was filtered. The filtration rate was instantaneous with no solvent retention. The wet cake was washed with 90 mL tBME (2×45 mL) and set to dry at ambient temperature overnight inside a vacuum oven. The isolated 30.57 g of white solid (96.5% isolated yield) was filtered. The solid after delumping with spatula was free flowing. The % LOD of the wet cake was at 43.2%. HPLC purity was at 98.6%. Bulk density was 0.3276 g/mL, tap density was 0.3931 g/mL, and the Hausner ratio was 1.20. XRPD conformed to the salt prepared according to Example 3. FIG. 16 depicts various XRPD scans for the salt prepared according to Example 7 on a 30 g, 100 g, and 520 g scale and a salt prepared according to Example 3 on a 100 g scale. XRPD patterns were obtained using a Bruker D8 Advance equipped with a Cu Kα radiation source (1.54 Å), a 9-position sample holder and a LYNXEYE Super Speed Detector. Typically, the duration of each scan was 180 seconds and the 2θ range was 4 to 40°. Samples were placed on zero-background, silicon plate holders. DSC data were collected using a TA Instruments Q10 DSC. Typically, samples (˜2 mg) were placed in hermetic alodined aluminum sample pans and scanned from 30 to 350° C. at a rate of 10° C./min under a nitrogen purge of 50 mL/min. A Malvern Hydro 2000 SM (A) Mastersizer was used for particle size analysis data using a generic method. Ethyl acetate was used as the dispersant, with a pump speed of 2000 rpm, obstruction of 10-15%. The addition style included direct addition of the solid to the dispersant until desired obstruction is achieved. The number of measurements was a minimum of two. For PSD analysis, a sample was taken from the bulk of the solid. FIGS. 13, 14, and 15 are plots of the PSD analysis for the 30 g, 100 g, and 520 g lots respectively.

[2] = Description of the isolated solid (hygroscopicity); details: after drying under vacuum at ambient temperature
Protocol: A solution of α-6-mPEG6-O-hydroxycodone was prepared in a mixture of methanol and tert-butyl methyl ether (2:1, 2 volumes) at 30° C. A solution of phosphoric acid (85% aqueous, 1.05 eq) was prepared in a mixture of methanol and tert-butyl methyl ether (2:1, 1.2 volumes) at 20° C. The solutions were combined, maintaining a temperature of 30-50° C., resulting in the formation of dissolved α-6-mPEG6-O-hydroxycodone phosphate. This salt solution was adjusted to 40° C., and gradually transferred over the course of 1-3 hours into a solution of heptanes and tert-butyl methyl ether (4:1, 14 volumes) maintained at 45° C. During the transfer, α-6-mPEG6-O-hydroxycodone phosphate precipitated from the combined streams. The resulting slurry was cooled to 20° C. and agitation was ceased, permitting the solids to settle. The supernate was decanted, and heptanes (6 volumes) were added to the solids. The solids were slurried for at least one hour at 30° C., after which the slurry was cooled to 20° C. Again agitation was ceased, the solids were allowed to settle, and the supernate was decanted. Fresh heptanes were added to the solids, which were again slurried for at least one hour at 30° C. The slurry was cooled to 20° C., filtered, and washed with fresh heptanes (2 volumes). […] The solid form prepared according to this Example has a melting point in the range of about 175-177° C. […]

[3] = Particle size distribution (Malvern Mastersizer); details: ethyl acetate dispersant; phosphate salt
Protocol: as §1

Water vapor sorption = details: phosphate salt
Protocol: Moisture sorption/desorption data were collected on a VTI SGA-1 00 Vapor Sorption Analyzer. Sorption and desorption data were collected over a range of 5% to 95% relative humidity (RH) at 10% RH intervals under a nitrogen purge. Samples were not dried prior to analysis. Equilibrium criteria used for analysis were less than 0.0100% weight change in 5 minutes, with a maximum equilibration time of 3 hours if the weight criterion was not met. Data were not corrected for the initial moisture content of the samples. NaCl and PVP were used as calibration standards.

[4] = listed as Alpha 6-mPEG6-O-Hydroxycodone Phosphate Salt

Row | Compound | Bulk Density [1, 4] [g/mL] | Hausner ratio [1, 4] | Tap Density [1, 4] [g/mL] | nature of the isolated solid [2] | Particle Size Distribution DV[10] [3] | Particle Size Distribution DV[50] [3] | Particle Size Distribution DV[90] [3] | Bulk Density ([1]; phosphate salt) [g/mL] | Hausner ratio ([1]; phosphate salt) | Tap Density ([1]; phosphate salt) [g/mL] | Water Vapor Sorption (gain between 0-50% RH) (Water vapor sorption) [%]
1 | COCCOCCOCCOCCOCCOCCO[C@H]1CC[C@@]2(O)[C@H]3Cc4ccc(OC)c5c4[C@@]2(CCN3C)[C@H]1O5.O=P(O)(O)O [α-6-mPEG6-O-hydroxycodone phosphate] | 0.3276 | 1.20 | 0.3931 | slightly waxy, hygroscopic powder |  |  |  |  |  |  | 
2 | COCCOCCOCCOCCOCCOCCO[C@H]1CC[C@@]2(O)[C@H]3Cc4ccc(OC)c5c4[C@@]2(CCN3C)[C@H]1O5.O=C(O)C(O)C(O)C(=O)O [α-6-mPEG6-O-hydroxycodone D-tartrate] |  |  |  | deliquescent white powder |  |  |  |  |  |  | 
3 | COCCOCCOCCOCCOCCOCCO[C@H]1CC[C@@]2(O)[C@H]3Cc4ccc(OC)c5c4[C@@]2(CCN3C)[C@H]1O5.O=P(O)(O)O [100 g Lot, α-6-mPEG6-O-hydroxycodone phosphate salt] |  |  |  |  | DV[10] = 9 μm | DV[50] = 53 μm | DV[90] = 109 μm | 0.37 | 1.30 | 0.48 | 4.1
4 | COCCOCCOCCOCCOCCOCCO[C@H]1CC[C@@]2(O)[C@H]3Cc4ccc(OC)c5c4[C@@]2(CCN3C)[C@H]1O5.O=P(O)(O)O [520 g Lot, α-6-mPEG6-O-hydroxycodone phosphate salt] |  |  |  |  | DV[10] = 7 μm | DV[50] = 47 μm | DV[90] = 93 μm | 0.39 | 1.25 | 0.49 | 4.2
5 | COCCOCCOCCOCCOCCOCCO[C@H]1CC[C@@]2(O)[C@H]3Cc4ccc(OC)c5c4[C@@]2(CCN3C)[C@H]1O5.O=P(O)(O)O [30 g Lot, α-6-mPEG6-O-hydroxycodone phosphate salt] |  |  |  |  | DV[10] = 7 μm | DV[50] = 47 μm | DV[90] = 92 μm | 0.33 | 1.18 | 0.39 | 4.2

— patent publication US9682988B2, “Solid salt form of α-6-mPEG6-O-hydroxycodone as opioid agonists and uses thereof” (Nektar Therapeutics, priority 2012, dated 2017)
